Measurements as given in PubChem BioAssay (NCI).
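Briefly, cells in 96-well plates were exposed to five compound concentrations for 48 h, and endpoints were estimated by linear interpolation. TGI denotes the concentration required for complete inhibition of growth.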

Experiments:
Test in all cases: DTP human tumour cell line panel, 48 h
[1] = test system: SF-539 CNS
[2] = test system: SN12C renal
[3] = test system: MOLT-4 leukemia
[4] = test system: DU-145 prostate
[5] = test system: NCI-H226 lung
[6] = test system: HCC-2998 colon
[7] = test system: LOX IMVI melanoma
[8] = test system: NCI-H23 lung
[9] = test system: 786-0 renal
[10] = test system: K-562 leukemia
[11] = test system: M14 melanoma
[12] = test system: NCI/ADR-RES ovarian
[13] = test system: SNB-19 CNS
[14] = test system: KM12 colon
[15] = test system: SF-295 CNS
[16] = test system: MDA-N
[17] = test system: MCF7 breast
[18] = test system: HOP-62 NSCLC
[19] = test system: SNB-75 CNS
[20] = test system: NCI-H460 lung
[21] = test system: NCI-H522 lung
[22] = test system: SK-MEL-2 melanoma
[23] = test system: OVCAR-4 ovarian
[24] = test system: MALME-3M melanoma
[25] = test system: OVCAR-8 ovarian
[26] = test system: A549 NSCLC
[27] = test system: HCT-116 colon
[28] = test system: COLO 205 colon
[29] = test system: IGROV1 ovarian
[30] = test system: HS 578T breast
[31] = test system: OVCAR-5 ovarian
[32] = test system: T-47D breast
[33] = test system: SF-268 CNS
[34] = test system: PC-3 prostate
[35] = test system: A498 renal
[36] = test system: SW-620 colon
[37] = test system: UO-31 renal
[38] = test system: EKVX NSCLC
[39] = test system: OVCAR-3 ovarian
[40] = test system: SK-MEL-28 melanoma
[41] = test system: SR leukemia
[42] = test system: RXF 393 renal
[43] = test system: SK-OV-3 ovarian
[44] = test system: RPMI-8226 leukemia
[45] = test system: UACC-62 melanoma
[46] = test system: ACHN renal
[47] = test system: TK-10 renal
[48] = test system: MDA-MB-435
[49] = test system: SK-MEL-5 melanoma
[50] = test system: UACC-257 melanoma
[51] = test system: U251 CNS
[52] = test system: CAKI-1 renal
[53] = test system: HCT-15 colon
[54] = test system: HL-60(TB) leukemia
[55] = test system: BT-549 breast
[56] = test system: HT29 colon
[57] = test system: HOP-92 NSCLC
[58] = test system: MDA-MB-231 breast
[59] = test system: CCRF-CEM leukemia

C[C@@H]1CC[C@@]2(C)[C@H](C)/C(=C\COC(=O)/C=C/c3ccc(O)c(O)c3)CC[C@@]12C
TGI [1]: 16.2 µM | TGI [2]: 17.1 µM | TGI [3]: 8.9 µM | TGI [4]: 23.4 µM | TGI [5]: 20.8 µM | TGI [6]: 20 µM | TGI [7]: 21.5 µM | TGI [8]: 23.1 µM | TGI [9]: 17.6 µM | TGI [10]: 17.8 µM | TGI [11]: 26.1 µM | TGI [12]: 23.5 µM | TGI [13]: 27.8 µM | TGI [14]: 15.9 µM | TGI [15]: 23.2 µM | TGI [16]: 14.3 µM | TGI [17]: 15.2 µM | TGI [18]: 28.8 µM | TGI [19]: 28 µM | TGI [20]: 13.5 µM | TGI [21]: 3.12 µM | TGI [22]: 25.4 µM | TGI [23]: 19 µM | TGI [24]: 27.8 µM | TGI [25]: 24.1 µM | TGI [26]: 35.8 µM | TGI [27]: 14 µM | TGI [28]: 13.4 µM | TGI [29]: 22.6 µM | TGI [30]: 32.8 µM | TGI [31]: 35 µM | TGI [32]: 34.7 µM | TGI [33]: 23.5 µM | TGI [34]: 17.4 µM | TGI [35]: 25.8 µM | TGI [36]: 23.6 µM | TGI [37]: 28 µM | TGI [38]: 30.8 µM | TGI [39]: 21.6 µM | TGI [40]: 24.5 µM | TGI [41]: 6.93 µM | TGI [42]: 39.1 µM | TGI [43]: 26.4 µM | TGI [44]: 10.2 µM | TGI [45]: 22.1 µM | TGI [46]: 16.6 µM | TGI [47]: 11.5 µM | TGI [48]: 11.6 µM | TGI [49]: 17 µM | TGI [50]: 24.1 µM | TGI [51]: 17.8 µM | TGI [52]: 15 µM | TGI [53]: 16.1 µM | TGI [54]: 13.4 µM | TGI [55]: 29 µM | TGI [56]: 25.1 µM | TGI [57]: 29.7 µM | TGI [58]: 20.5 µM

O=CC1OC(=O)c2cc(O)c(O)c(O)c2-c2c(cc(O)c(O)c2O)C(=O)OC1C1OC(=O)c2cc(O)c(O)c(O)c2-c2c(O)c(O)c3oc(=O)c4c(c(O)c(O)c5oc(=O)c2c3c54)-c2c(cc(O)c(O)c2O)C(=O)OCC1O (stereo not given)
TGI [2]: 35.5 µM | TGI [3]: 90.1 µM | TGI [4]: > 100 µM | TGI [5]: > 100 µM | TGI [6]: > 100 µM | TGI [7]: 29.2 µM | TGI [8]: > 100 µM | TGI [9]: 42.6 µM | TGI [10]: 71.8 µM | TGI [11]: > 100 µM | TGI [12]: > 100 µM | TGI [13]: > 100 µM | TGI [14]: > 100 µM | TGI [15]: 89.4 µM | TGI [16]: 51.9 µM | TGI [17]: 40.6 µM | TGI [18]: > 100 µM | TGI [19]: 93.8 µM | TGI [20]: > 100 µM | TGI [21]: 85.7 µM | TGI [22]: > 100 µM | TGI [23]: 38.2 µM | TGI [24]: > 100 µM | TGI [25]: 41.2 µM | TGI [26]: > 100 µM | TGI [27]: 32.6 µM | TGI [28]: > 100 µM | TGI [29]: > 100 µM | TGI [30]: > 100 µM | TGI [31]: > 100 µM | TGI [59]: > 100 µM | TGI [32]: > 100 µM | TGI [33]: > 100 µM | TGI [34]: > 100 µM | TGI [35]: > 100 µM | TGI [36]: 47.7 µM | TGI [37]: > 100 µM | TGI [38]: > 100 µM | TGI [39]: > 100 µM | TGI [40]: > 100 µM | TGI [41]: > 100 µM | TGI [42]: > 100 µM | TGI [43]: > 100 µM | TGI [44]: > 100 µM | TGI [45]: > 100 µM | TGI [46]: > 100 µM | TGI [48]: 46.4 µM | TGI [49]: > 100 µM | TGI [50]: > 100 µM | TGI [51]: 44.8 µM | TGI [52]: 25.9 µM | TGI [53]: > 100 µM | TGI [54]: > 100 µM | TGI [55]: > 100 µM | TGI [56]: 29.6 µM | TGI [57]: > 100 µM | TGI [58]: 37 µM
